# System: MV-4-11 cells
# Test: Gene expression microarray analysis (Affymetrix PrimeView) and GSEA
# Assay type: cell-based, human
# Parameters: RFU PODN (11730768_x_at) / Fold change /veh PODN (11730768_x_at) / RFU LINC00158 (11744669_a_at) / Fold change /veh LINC00158 (11744669_a_at) / RFU DUSP10 (11751237_a_at) / Fold change /veh DUSP10 (11751237_a_at) / RFU ID3 (11757404_x_at) / Fold change /veh ID3 (11757404_x_at) / RFU PLEKHG5 (11737974_s_at) / Fold change /veh PLEKHG5 (11737974_s_at) / RFU LRRC4B (11730491_at) / Fold change /veh LRRC4B (11730491_at) / RFU GIMAP4 (11747438_a_at) / Fold change /veh GIMAP4 (11747438_a_at) / RFU KRT8 (11758183_x_at) / Fold change /veh KRT8 (11758183_x_at) / RFU CNN1 (11734310_a_at) / Fold change /veh CNN1 (11734310_a_at) / RFU VPS37D (11726825_at) / Fold change /veh VPS37D (11726825_at) / RFU C10orf10 (11716522_x_at) / Fold change /veh C10orf10 (11716522_x_at) / RFU KIR2DL2 /// KIR2DL4 /// KIR2DL5A /// KIR2DL5B /// KIR2DS1 /// KIR2DS2 /// KIR2DS3 /// KIR2DS4 /// KIR3DL3 /// KIR3DL3 /// KIR3DS1 (11738374_at) / Fold change /veh KIR2DL2 /// KIR2DL4 /// KIR2DL5A /// KIR2DL5B /// KIR2DS1 /// KIR2DS2 /// KIR2DS3 /// KIR2DS4 /// KIR3DL3 /// KIR3DL3 /// KIR3DS1 (11738374_at) / RFU C1QL1 (11718748_at) / Fold change /veh C1QL1 (11718748_at) / RFU TMPRSS4 (11747572_a_at) / Fold change /veh TMPRSS4 (11747572_a_at) / RFU HAMP (11756126_x_at) / Fold change /veh HAMP (11756126_x_at) / RFU RNFT2 (11725882_a_at) / Fold change /veh RNFT2 (11725882_a_at) / RFU NR4A2 (11747474_a_at) / Fold change /veh NR4A2 (11747474_a_at) / RFU ABCC12 (11746883_a_at) / Fold change /veh ABCC12 (11746883_a_at) / RFU TMEM136 (11760407_x_at) / Fold change /veh TMEM136 (11760407_x_at) / RFU CLDN22 /// WWC2 (11732394_at) / Fold change /veh CLDN22 /// WWC2 (11732394_at) / RFU HLA-DPB1 (11760878_x_at) / Fold change /veh HLA-DPB1 (11760878_x_at) / RFU SPINT1 (11716480_a_at) / Fold change /veh SPINT1 (11716480_a_at) / RFU GAP43 (11754022_s_at) / Fold change /veh GAP43 (11754022_s_at) / RFU A4GNT (11735810_at) / Fold change /veh A4GNT (11735810_at) / RFU PRB3 (11715151_x_at) / Fold change /veh PRB3 (11715151_x_at) / RFU TUBB4B (11761932_at) / Fold change /veh TUBB4B (11761932_at) / RFU CAPN14 (11732068_a_at) / Fold change /veh CAPN14 (11732068_a_at) / RFU TMCC2 (11721928_a_at) / Fold change /veh TMCC2 (11721928_a_at) / RFU IRGQ (11745062_a_at) / Fold change /veh IRGQ (11745062_a_at) / RFU FAM174B (11720279_a_at) / Fold change /veh FAM174B (11720279_a_at) / RFU TMPRSS4 (11748680_a_at) / Fold change /veh TMPRSS4 (11748680_a_at) / RFU FAM212B (11763350_a_at) / Fold change /veh FAM212B (11763350_a_at) / RFU PLEKHG5 (11743358_a_at) / Fold change /veh PLEKHG5 (11743358_a_at) / RFU ZSCAN30 (11745921_a_at) / Fold change /veh ZSCAN30 (11745921_a_at) / RFU CMKLR1 (11741424_a_at) / Fold change /veh CMKLR1 (11741424_a_at) / RFU LOC101060620 /// MAPK8IP1 (11723275_at) / Fold change /veh LOC101060620 /// MAPK8IP1 (11723275_at) / RFU SPTSSB (11747773_x_at) / Fold change /veh SPTSSB (11747773_x_at) / RFU PRSS12 (11739890_at) / Fold change /veh PRSS12 (11739890_at) / RFU BIN1 (11741810_x_at) / Fold change /veh BIN1 (11741810_x_at) / RFU WNT11 (11732464_a_at) / Fold change /veh WNT11 (11732464_a_at) / RFU C10orf10 (11716521_a_at) / Fold change /veh C10orf10 (11716521_a_at) / RFU C5orf56 (11738089_at) / Fold change /veh C5orf56 (11738089_at) / RFU CYB561 (11721691_x_at) / Fold change /veh CYB561 (11721691_x_at) / RFU ANKRD19P (11752326_a_at) / Fold change /veh ANKRD19P (11752326_a_at) / RFU OR2T12 /// OR2T33 /// OR2T8 (11738714_s_at) / Fold change /veh OR2T12 /// OR2T33 /// OR2T8 (11738714_s_at) / RFU VCAN (11748164_a_at) / Fold change /veh VCAN (11748164_a_at) / RFU JSRP1 (11732532_at) / Fold change /veh JSRP1 (11732532_at) / RFU KRTAP10-11 (11738290_x_at) / Fold change /veh KRTAP10-11 (11738290_x_at) / RFU MYO3A (11730013_a_at) / Fold change /veh MYO3A (11730013_a_at) / RFU EBF3 (11725865_a_at) / Fold change /veh EBF3 (11725865_a_at) / RFU CAMK2N1 (11719241_x_at) / Fold change /veh CAMK2N1 (11719241_x_at) / RFU C5orf56 (11738088_a_at) / Fold change /veh C5orf56 (11738088_a_at) / RFU OLFML3 (11715873_a_at) / Fold change /veh OLFML3 (11715873_a_at) / RFU LOC100653217 /// NTM (11731650_a_at) / Fold change /veh LOC100653217 /// NTM (11731650_a_at) / RFU MAPK11 (11762145_a_at) / Fold change /veh MAPK11 (11762145_a_at) / RFU FIZ1 (11724087_x_at) / Fold change /veh FIZ1 (11724087_x_at) / RFU OASL (11726364_x_at) / Fold change /veh OASL (11726364_x_at) / RFU SOX15 (11748057_x_at) / Fold change /veh SOX15 (11748057_x_at) / RFU CD79A (11719716_a_at) / Fold change /veh CD79A (11719716_a_at) / RFU HIST1H1D (11736915_at) / Fold change /veh HIST1H1D (11736915_at) / RFU CASKIN2 (11723855_a_at) / Fold change /veh CASKIN2 (11723855_a_at) / RFU LOC730098 (11760151_x_at) / Fold change /veh LOC730098 (11760151_x_at) / RFU OR4N2 (11742367_at) / Fold change /veh OR4N2 (11742367_at) / RFU PRRT2 (11749266_a_at) / Fold change /veh PRRT2 (11749266_a_at) / RFU SNX32 (11753110_a_at) / Fold change /veh SNX32 (11753110_a_at) / RFU CDHR5 (11726645_a_at) / Fold change /veh CDHR5 (11726645_a_at) / RFU RCAN1 (11760418_a_at) / Fold change /veh RCAN1 (11760418_a_at) / RFU FAM167A (11723789_a_at) / Fold change /veh FAM167A (11723789_a_at) / RFU FAM26E (11764081_at) / Fold change /veh FAM26E (11764081_at) / RFU ISYNA1 (11749810_s_at) / Fold change /veh ISYNA1 (11749810_s_at) / RFU ACY1 (11761880_at) / Fold change /veh ACY1 (11761880_at) / RFU 11764098_at / Fold change /veh 11764098_at / RFU SAMD14 (11745864_x_at) / Fold change /veh SAMD14 (11745864_x_at) / RFU NPB (11741838_a_at) / Fold change /veh NPB (11741838_a_at) / RFU TMPRSS6 (11731388_a_at) / Fold change /veh TMPRSS6 (11731388_a_at) / RFU KRTAP10-2 (11738614_at) / Fold change /veh KRTAP10-2 (11738614_at) / RFU ARHGAP8 /// PRR5-ARHGAP8 (11727945_x_at) / Fold change /veh ARHGAP8 /// PRR5-ARHGAP8 (11727945_x_at) / RFU KRTAP5-7 /// NADSYN1 (11734609_at) / Fold change /veh KRTAP5-7 /// NADSYN1 (11734609_at) / RFU RASL12 (11751679_a_at) / Fold change /veh RASL12 (11751679_a_at) / RFU CDKN2B (11736163_a_at) / Fold change /veh CDKN2B (11736163_a_at) / RFU PRF1 (11729649_at) / Fold change /veh PRF1 (11729649_at) / RFU, ZNF638 /// ZNF638-IT1 / Fold change vs veh, ZNF638 /// ZNF638-IT1 / RFU, PANK3 / Fold change vs veh, PANK3 / RFU, SH3YL1 / Fold change vs veh, SH3YL1 / RFU, ZEB2 / Fold change vs veh, ZEB2 / RFU, NRIP1 / Fold change vs veh, NRIP1 / RFU, PTTG1IP / Fold change vs veh, PTTG1IP / RFU, CAPN2 / Fold change vs veh, CAPN2 / RFU, MED14 / Fold change vs veh, MED14 / RFU, SNORA58 / Fold change vs veh, SNORA58 / RFU, C1orf63 / Fold change vs veh, C1orf63 / RFU, LRRFIP1 / Fold change vs veh, LRRFIP1 / RFU, NDUFAF7 / Fold change vs veh, NDUFAF7 / RFU, SLC12A2 / Fold change vs veh, SLC12A2 / RFU, IBTK / Fold change vs veh, IBTK / RFU, ESF1 / Fold change vs veh, ESF1 / Fold change vs veh, TMEM50B / RFU, TAOK1 / Fold change vs veh, TAOK1 / RFU, ACBD3 / Fold change vs veh, ACBD3 / RFU, TMA16 / Fold change vs veh, TMA16 / RFU, RWDD3 / Fold change vs veh, RWDD3 / RFU, BCAT1 / Fold change vs veh, BCAT1 / RFU, EDEM3 / Fold change vs veh, EDEM3 / RFU, TMEM33 / Fold change vs veh, TMEM33 / RFU, WDR75 / Fold change vs veh, WDR75 / RFU, AHCTF1 / Fold change vs veh, AHCTF1 / RFU, TFRC / Fold change vs veh, TFRC / RFU, ZDHHC17 / Fold change vs veh, ZDHHC17 / RFU, NOM1 / Fold change vs veh, NOM1 / RFU, ARL8B / Fold change vs veh, ARL8B / RFU, ZBTB11 / Fold change vs veh, ZBTB11 / RFU, TAMM41 / Fold change vs veh, TAMM41 / RFU, KIAA1704 /// LOC100996395 / Fold change vs veh, KIAA1704 /// LOC100996395 / RFU, ING1 / Fold change vs veh, ING1 / RFU, TRMT61B / Fold change vs veh, TRMT61B / RFU, FUBP3 / Fold change vs veh, FUBP3 / RFU, TP53 / Fold change vs veh, TP53 / RFU, TNKS2 / Fold change vs veh, TNKS2 / RFU, ZFP14 / Fold change vs veh, ZFP14 / RFU, ACTR2 / Fold change vs veh, ACTR2 / RFU, PPP3R1 / Fold change vs veh, PPP3R1 / RFU, PIK3R1 / Fold change vs veh, PIK3R1 / RFU, HNRNPA1 / Fold change vs veh, HNRNPA1 / RFU, RNF170 / Fold change vs veh, RNF170 / RFU, ZNF28 / Fold change vs veh, ZNF28 / RFU, RNGTT / Fold change vs veh, RNGTT / RFU, OGT / Fold change vs veh, OGT / RFU, BRD1 / Fold change vs veh, BRD1 / RFU, MARS / Fold change vs veh, MARS / RFU, ZNF655 / Fold change vs veh, ZNF655 / RFU, FAHD1 / Fold change vs veh, FAHD1 / RFU, BDP1 / Fold change vs veh, BDP1 / RFU, LRRCC1 / Fold change vs veh, LRRCC1 / RFU, ARID1A / Fold change vs veh, ARID1A / RFU, ZNF146 / Fold change vs veh, ZNF146 / RFU, ZNF330 / Fold change vs veh, ZNF330 / RFU, GPN3 / Fold change vs veh, GPN3 / RFU, C9orf123 / Fold change vs veh, C9orf123 / RFU, N4BP2L2 / Fold change vs veh, N4BP2L2 / RFU, ARFIP1 / Fold change vs veh, ARFIP1 / RFU, FAM179B / Fold change vs veh, FAM179B / RFU, BCL10 / Fold change vs veh, BCL10 / RFU, UHRF1BP1L / Fold change vs veh, UHRF1BP1L / RFU, BET1 / Fold change vs veh, BET1 / RFU, CNOT2 / Fold change vs veh, CNOT2 / RFU, ZNF268 / Fold change vs veh, ZNF268 / Fold change vs veh, ZNF507 / RFU, DGCR2 / Fold change vs veh, DGCR2 / RFU, WDSUB1 / Fold change vs veh, WDSUB1 / Fold change vs veh, HSP90B1 /// MIR3652 / RFU, ADSS / Fold change vs veh, ADSS / RFU, GK / Fold change vs veh, GK / RFU, ZNF148 / Fold change vs veh, ZNF148 / RFU, TAF9 / Fold change vs veh, TAF9 / RFU, SLC1A5 / Fold change vs veh, SLC1A5 / RFU, SLMO2 / Fold change vs veh, SLMO2 / RFU, ABCC4 / Fold change vs veh, ABCC4 / RFU, LOC101060439 /// RAP1B / Fold change vs veh, LOC101060439 /// RAP1B / RFU, RFX7 / Fold change vs veh, RFX7 / RFU, GTPBP10 / Fold change vs veh, GTPBP10 / RFU, CNEP1R1 / Fold change vs veh, CNEP1R1 / RFU, BIVM-ERCC5 /// ERCC5 / Fold change vs veh, BIVM-ERCC5 /// ERCC5 / RFU, ILF3 / Fold change vs veh, ILF3 / RFU 11762660_at / Fold change /veh 11762660_at / RFU VCAN (11757783_s_at) / Fold change /veh VCAN (11757783_s_at) / RFU DDX43 (11728927_at) / Fold change /veh DDX43 (11728927_at) / RFU KRT8 (11758188_x_at) / Fold change /veh KRT8 (11758188_x_at) / RFU NKD1 (11759106_at) / Fold change /veh NKD1 (11759106_at) / RFU SRD5A1 (11742802_a_at) / Fold change /veh SRD5A1 (11742802_a_at) / RFU TPSAB1 /// TPSB2 (11721975_s_at) / Fold change /veh TPSAB1 /// TPSB2 (11721975_s_at) / RFU GSTM3 (11746129_a_at) / Fold change /veh GSTM3 (11746129_a_at) / RFU IL23R (11737362_x_at) / Fold change /veh IL23R (11737362_x_at) / RFU TMEM51 (11727254_a_at) / Fold change /veh TMEM51 (11727254_a_at) / RFU PIWIL2 (11732686_x_at) / Fold change /veh PIWIL2 (11732686_x_at) / RFU ORM1 (11744905_x_at) / Fold change /veh ORM1 (11744905_x_at) / RFU CCDC152 (11743942_at) / Fold change /veh CCDC152 (11743942_at) / RFU ECM1 (11717891_a_at) / Fold change /veh ECM1 (11717891_a_at) / RFU IL23R (11748794_a_at) / Fold change /veh IL23R (11748794_a_at) / RFU TNFAIP8L3 (11732012_x_at) / Fold change /veh TNFAIP8L3 (11732012_x_at) / RFU MBOAT4 (11741988_at) / Fold change /veh MBOAT4 (11741988_at) / RFU 11764193_at / Fold change /veh 11764193_at / RFU TMEM53 (11763286_at) / Fold change /veh TMEM53 (11763286_at) / RFU MAGEB2 (11727129_at) / Fold change /veh MAGEB2 (11727129_at) / RFU TMEM200A (11744735_a_at) / Fold change /veh TMEM200A (11744735_a_at) / RFU CCDC152 (11751479_a_at) / Fold change /veh CCDC152 (11751479_a_at) / RFU FAM211A (11726209_a_at) / Fold change /veh FAM211A (11726209_a_at) / RFU RGS16 (11746705_a_at) / Fold change /veh RGS16 (11746705_a_at) / RFU VCAN (11755009_s_at) / Fold change /veh VCAN (11755009_s_at) / RFU RHOB (11743442_s_at) / Fold change /veh RHOB (11743442_s_at) / RFU RGS16 (11720943_a_at) / Fold change /veh RGS16 (11720943_a_at) / RFU RGS16 (11720944_at) / Fold change /veh RGS16 (11720944_at) / RFU, VPS4B / Fold change vs veh, VPS4B / RFU, CREB1 / Fold change vs veh, CREB1 / RFU, DNAJC13 / Fold change vs veh, DNAJC13 / RFU, GNAQ / Fold change vs veh, GNAQ / RFU, CDK5R1 / Fold change vs veh, CDK5R1 / RFU, ZRANB3 / Fold change vs veh, ZRANB3 / RFU, CUL4A / Fold change vs veh, CUL4A / RFU, CCNY / Fold change vs veh, CCNY / RFU, UFL1 / Fold change vs veh, UFL1 / RFU, COG3 / Fold change vs veh, COG3 / RFU, DIAPH2 / Fold change vs veh, DIAPH2 / RFU, SKA2 / Fold change vs veh, SKA2 / RFU, AFF3 / Fold change vs veh, AFF3 / RFU, LMF1 / Fold change vs veh, LMF1 / RFU, IPO11 / Fold change vs veh, IPO11 / RFU, DFFB / Fold change vs veh, DFFB / RFU, FOXP1 / Fold change vs veh, FOXP1 / RFU, CARD8 / Fold change vs veh, CARD8 / RFU, STRN3 / Fold change vs veh, STRN3 / RFU, ADK / Fold change vs veh, ADK / RFU, RASSF2 / Fold change vs veh, RASSF2 / RFU, WIPF1 / Fold change vs veh, WIPF1 / RFU, LARP1B / Fold change vs veh, LARP1B / RFU, RASA1 / Fold change vs veh, RASA1 / RFU, RB1 / Fold change vs veh, RB1 / RFU, PPFIA1 / Fold change vs veh, PPFIA1 / RFU, MAT2A / Fold change vs veh, MAT2A / RFU, CCT5 / Fold change vs veh, CCT5 / RFU, WDR92 / Fold change vs veh, WDR92 / RFU, CUX1 / Fold change vs veh, CUX1 / RFU, TTC7A / Fold change vs veh, TTC7A / RFU, TMEM135 / Fold change vs veh, TMEM135 / RFU, DEPTOR / Fold change vs veh, DEPTOR / RFU, CPM / Fold change vs veh, CPM / RFU, DNAJB6 / Fold change vs veh, DNAJB6 / RFU, CACNA2D3 / Fold change vs veh, CACNA2D3 / RFU, DTX4 / Fold change vs veh, DTX4 / RFU, TFCP2 / Fold change vs veh, TFCP2 / RFU, GMCL1 /// GMCL1P1 / Fold change vs veh, GMCL1 /// GMCL1P1 / RFU, AEBP2 / Fold change vs veh, AEBP2 / RFU, SNHG1 /// SNORD22 /// SNORD25 /// SNORD26 /// SNORD27 /// SNORD28 /// SNORD29 /// SNORD31 / Fold change vs veh, SNHG1 /// SNORD22 /// SNORD25 /// SNORD26 /// SNORD27 /// SNORD28 /// SNORD29 /// SNORD31 / Fold change (Aza/veh), C12orf56 (ProbeSet 11735607_a_at) / Fold change (ACY-1035/veh), C12orf56 (ProbeSet 11735607_a_at) / Fold change (Aza/veh), FGFR1OP (ProbeSet 11751329_s_at) / Fold change (ACY-1035/veh), FGFR1OP (ProbeSet 11751329_s_at) / Fold change (Aza/veh), VPS36 (ProbeSet 11739960_a_at) / Fold change (ACY-1035/veh), VPS36 (ProbeSet 11739960_a_at) / RFU SYPL1 (11715823_x_at) / Fold change /veh SYPL1 (11715823_x_at) / RFU IGFBP7 (11715501_s_at) / Fold change /veh IGFBP7 (11715501_s_at) / RFU REEP3 (11722064_at) / Fold change /veh REEP3 (11722064_at) / RFU IGLL1 (11728026_x_at) / Fold change /veh IGLL1 (11728026_x_at): dose or concentration left out as unconfirmed
# Details: MV-4-11 cells, 48 hours
compound,measurement,value
Nc1ncn([C@@H]2O[C@H](CO)[C@@H](O)[C@H]2O)c(=O)n1 [azacitidine],RFU ZSCAN30 (11745921_a_at),8.95 RFU

# — PMC5218480 (PLoS ONE, 2017)
